Experiments:
DU-145 = experiment: Tested for in vitro cytotoxic activity against prostate DU145 human cancer cell lines; type: functional
NCI/ADR-RES = experiment: Tested for in vitro cytotoxic activity against breast MCF-7/ADR human cancer cell lines; type: functional
U-251 = experiment: Tested for in vitro cytotoxic activity against CNS U251 human cancer cell lines; type: functional
A498 = experiment: Tested for in vitro cytotoxic activity against renal A498 human cancer cell lines; type: functional
SK-OV-3 = experiment: Tested for in vitro cytotoxic activity against ovarian SKOV3 human cancer cell lines; type: functional
M14 = experiment: Tested for in vitro cytotoxic activity against melanoma M14 human cancer cell lines; type: functional
NCI-H522 = experiment: Tested for in vitro cytotoxic activity against lung H522 human cancer cell lines; type: functional
SW-620 = experiment: Tested for in vitro cytotoxic activity against colon SW620 human cancer cell lines; type: functional
Mus musculus [1] = experiment: Maximum mean weight loss on 26th day after administration of 40 mg/kg daily for 10 days(total 400 mg/kg).; type: functional
[2] = Bioavailability (dose 20 mg/kg); type: ADME, organism-based; settings: eutheria, in vivo
Mus musculus [3] = organism: Mus musculus; experiment: Antitumor activity after 17 days was determined.; type: functional
Mus musculus [4] = organism: Mus musculus; experiment: Antitumor activity after 24 days was determined.; type: functional
Mus musculus [5] = experiment: Maximum mean weight loss on 24th day after administration of 40 mg/kg daily for 10 days(total 400 mg/kg).; type: functional

| bioavailability [2] | Structure (SMILES) | GI50 (DU-145) | GI50 (NCI/ADR-RES) | GI50 (U-251) | GI50 (A498) | GI50 (SK-OV-3) | GI50 (M14) | GI50 (NCI-H522) | GI50 (SW-620) | Max mean weight loss (Mus musculus [1]) | Optimum T/C (Mus musculus [3]) | Optimum T/C (Mus musculus [4]) | Max mean weight loss (Mus musculus [5]) |
| --- | --- | --- | --- | --- | --- | --- | --- | --- | --- | --- | --- | --- | --- |
| – | O=c1c2ccccc2nc2n1-c1ccccc1/C2=N\OCCN1CCCC1 | 3 µM | 6 µM | 25 µM | 5 µM | 3 µM | 2 µM | 3 µM | 0.85 µM | – | – | – | – |
| – | O=c1c2ccccc2nc2n1-c1ccccc1C2(O)OCCOc1ccccc1 (centres undefined) | > 100 µM | > 100 µM | > 100 µM | > 100 µM | > 100 µM | > 100 µM | > 100 µM | > 100 µM | – | – | – | – |
| – | C=CC1(O)c2ccccc2-n2c1nc1ccccc1c2=O (centres undefined) | 10 µM | 20 µM | 12 µM | 12 µM | 6 µM | 8 µM | 15 µM | 10 µM | – | – | – | – |
| – | O=C1c2ccccc2-n2c1nc1ccc(Br)cc1c2=O | > 100 µM | > 100 µM | > 100 µM | > 100 µM | > 100 µM | > 100 µM | > 100 µM | > 100 µM | – | – | – | – |
| – | O=c1c2ccccc2nc2n1-c1ccccc1/C2=N\OCCO | 3 µM | 0.01 µM | 1 µM | 40 µM | 20 µM | 30 µM | 7 µM | 20 µM | – | – | – | – |
| – | COc1cc2nc3n(c(=O)c2cc1OC)-c1ccccc1C3=O | > 100 µM | > 100 µM | > 100 µM | > 100 µM | > 100 µM | > 100 µM | > 100 µM | > 100 µM | – | – | – | – |
| – | CC1(O)c2ccccc2-n2c1nc1ccccc1c2=O (centres undefined) | > 100 µM | > 100 µM | > 100 µM | > 100 µM | > 100 µM | > 100 µM | > 100 µM | > 100 µM | – | – | – | – |
| – | CS(=O)(=O)Nc1ccc2c(c1)C(=O)c1nc3ccccc3c(=O)n1-2 | > 100 µM | > 100 µM | > 100 µM | > 100 µM | > 100 µM | > 100 µM | > 100 µM | > 100 µM | – | – | – | – |
| – | CN1CCN(CC(=O)Nc2ccc3c(c2)C(=O)c2nc4ccccc4c(=O)n2-3)CC1 | 10 µM | 20 µM | > 100 µM | 20 µM | 6 µM | 8 µM | 15 µM | 10 µM | – | – | – | – |
| – | O=c1c2ccccc2nc2n1-c1ccc([N+](=O)[O-])cc1/C2=N\OCCO | 2.5 µM | 0.4 µM | 0.8 µM | 0.6 µM | 2 µM | 2 µM | 0.7 µM | 0.75 µM | – | – | – | – |
| – | O=C(CO/N=C1\c2ccccc2-n2c1nc1ccccc1c2=O)Nc1ccccn1 | 10 µM | 8 µM | 8.5 µM | 20 µM | 52 µM | 95 µM | 25 µM | > 100 µM | – | – | – | – |
| – | CN(C)CCO/N=C1\c2cc([N+](=O)[O-])ccc2-n2c1nc1ccccc1c2=O | > 100 µM | 4 µM | 7.5 µM | > 100 µM | 9 µM | 7.5 µM | 9 µM | 0.75 µM | – | – | – | – |
| – | O=Nc1c2ccccc2n2c(O)c3ccccc3nc12 | 50 µM | 15 µM | 15 µM | 60 µM | 30 µM | 40 µM | 50 µM | 8 µM | – | – | – | – |
| – | O=C1c2cc([N+](=O)[O-])ccc2-n2c1nc1ccccc1c2=O | 8 µM | 1 µM | 4.5 µM | 2 µM | 25 µM | 15 µM | 4.8 µM | 25 µM | – | – | – | – |
| – | O=C1c2ccccc2-n2c1nc1ccccc1c2=O [TRYPTANTHRIN] | 0.4 µM | 30 µM | 100 µM | 0.95 µM | 2.5 µM | 15 µM | 15 µM | 5 µM | – | – | – | – |
| – | O=C1c2cc3c(cc2-n2c1nc1ccccc1c2=O)OCO3 | > 100 µM | > 100 µM | > 100 µM | > 100 µM | > 100 µM | > 100 µM | > 100 µM | > 100 µM | – | – | – | – |
| – | O=C1c2cc(Cl)ccc2-n2c1nc1ccccc1c2=O | > 100 µM | > 100 µM | > 100 µM | > 100 µM | > 100 µM | > 100 µM | > 100 µM | > 100 µM | – | – | – | – |
| 76% | CN(C)CCCO/N=C1\c2cc([N+](=O)[O-])ccc2-n2c1nc1ccccc1c2=O | 2 µM | 4 µM | 2.5 µM | 0.09 µM | 0.6 µM | 0.4 µM | 0.4 µM | 0.5 µM | 14% | 23% | – | – |

| bioavailability [2] | Structure (SMILES) | GI50 (DU-145) | GI50 (NCI/ADR-RES) | GI50 (U-251) | GI50 (A498) | GI50 (SK-OV-3) | GI50 (M14) | GI50 (NCI-H522) | GI50 (SW-620) | Max mean weight loss (Mus musculus [1]) | Optimum T/C (Mus musculus [3]) | Optimum T/C (Mus musculus [4]) | Max mean weight loss (Mus musculus [5]) |
| --- | --- | --- | --- | --- | --- | --- | --- | --- | --- | --- | --- | --- | --- |
| – | Nc1ccc2c(c1)C(=O)c1nc3ccccc3c(=O)n1-2 | 2 µM | 5 µM | 0.7 µM | 3 µM | 5 µM | 5 µM | 5 µM | 4.8 µM | – | – | – | – |
| – | Nc1ccc2nc3n(c(=O)c2c1)-c1ccccc1C3=O | 60 µM | 40 µM | 70 µM | 80 µM | 40 µM | 60 µM | 60 µM | 60 µM | – | – | – | – |
| – | COC(=O)CO/N=C1\c2ccccc2-n2c1nc1ccccc1c2=O | 30 µM | 0.01 µM | > 100 µM | > 100 µM | 50 µM | 40 µM | 80 µM | > 100 µM | – | – | – | – |
| – | COc1ccc2c(c1)C(=O)c1nc3ccccc3c(=O)n1-2 | > 100 µM | > 100 µM | > 100 µM | > 100 µM | > 100 µM | > 100 µM | > 100 µM | > 100 µM | – | – | – | – |
| – | O=C1c2cc(Br)ccc2-n2c1nc1ccccc1c2=O | 0.15 µM | 0.7 µM | > 100 µM | 3 µM | 5 µM | 0.8 µM | 0.7 µM | 0.4 µM | – | – | – | – |
| – | O=c1c2ccccc2nc2n1-c1ccc(Br)cc1/C2=N\OCCN1CCCCC1 | 0.55 µM | 0.3 µM | 0.095 µM | 2 µM | 1 µM | 2.5 µM | 2 µM | 3 µM | – | – | – | – |
| – | CN(C)CCO/N=C1\c2cc(Br)ccc2-n2c1nc1ccccc1c2=O | 0.2 µM | 0.06 µM | 0.45 µM | 1.5 µM | 3 µM | 2 µM | 2 µM | 3 µM | – | – | – | – |
| – | O=C(CCl)Nc1ccc2c(c1)C(=O)c1nc3ccccc3c(=O)n1-2 | 0.25 µM | 0.06 µM | 0.2 µM | 0.4 µM | 0.05 µM | 0.9 µM | 4 µM | 0.6 µM | – | – | – | – |
| – | O=c1c2ccccc2nc2n1-c1ccccc1/C2=N\OCCCN1CCCC1 | 5 µM | 5 µM | 6 µM | 7 µM | 4 µM | 6 µM | 4 µM | 4.5 µM | – | – | – | – |
| – | Cc1ccc2c(c1)C(=O)c1nc3ccccc3c(=O)n1-2 | > 100 µM | 0.1 µM | 20 µM | 60 µM | > 100 µM | 60 µM | 0.15 µM | > 100 µM | – | – | – | – |
| – | CN(C)CCCO/N=C1\c2ccccc2-n2c1nc1ccccc1c2=O | 3.5 µM | 7.5 µM | 0.7 µM | 4 µM | 2 µM | 5 µM | 0.6 µM | 4 µM | – | – | – | – |
| – | O=C(/C=C/c1ccccc1)O/N=C1\c2ccccc2-n2c1nc1ccccc1c2=O | > 100 µM | 7.5 µM | 20 µM | 10 µM | 6 µM | 90 µM | 45 µM | 60 µM | – | – | – | – |
| – | CCC(=O)Nc1ccc2c(c1)C(=O)c1nc3ccccc3c(=O)n1-2 | 10 µM | 20 µM | > 100 µM | 7 µM | 8 µM | 10 µM | 18 µM | 22 µM | – | – | – | – |
| 14% | CN(C)CCO/N=C1\c2ccccc2-n2c1nc1ccccc1c2=O | 2.5 µM | 0.4 µM | 0.8 µM | 0.6 µM | 2 µM | 2 µM | 0.7 µM | 0.75 µM | – | – | 75% | 14% |
| – | CCCCC1(O)c2ccccc2-n2c1nc1ccccc1c2=O (centres undefined) | > 100 µM | > 100 µM | > 100 µM | > 100 µM | > 100 µM | > 100 µM | > 100 µM | > 100 µM | – | – | – | – |
| – | CCCC(=O)Nc1ccc2c(c1)C(=O)c1nc3ccccc3c(=O)n1-2 | 20 µM | 10 µM | 12 µM | 20 µM | 6 µM | 18.5 µM | 18.2 µM | 10.5 µM | – | – | – | – |
| – | O=C1c2ccccc2-n2c1nc1ccc([N+](=O)[O-])cc1c2=O | > 100 µM | > 100 µM | > 100 µM | > 100 µM | > 100 µM | > 100 µM | > 100 µM | > 100 µM | – | – | – | – |
| – | CC(=O)Nc1ccc2c(c1)C(=O)c1nc3ccccc3c(=O)n1-2 | 0.5 µM | 0.4 µM | 20 µM | 0.4 µM | 20 µM | 10 µM | 5 µM | 30 µM | – | – | – | – |
